How the values were obtained:
bromegrass, downy = test: Test D postemergence; format: in vivo, Bromus tectorum; conditions: Postemergence, scale 0 to 100 (0 no effect, 100 complete control)
Summary of the method: (§1)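 After treatment, visual injury versus untreated plants, 0–100 scale, assessed at 7 to 21 days. Applications were made preemergence to silt loam-sown seed and postemergence to seedlings 2–18 cm high in potting medium.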

field poppy = test: Test D postemergence; format: in vivo, Papaver rhoeas
Text: (§2) Seeds of plant species selected from bluegrass (annual bluegrass, Poa annua), blackgrass (Alopecurus myosuroides), canarygrass (littleseed canarygrass, Phalaris minor), chickweed (common chickweed, Stellaria media), galium (catchweed bedstraw, Galium aparine), bromegrass, downy (downy bromegrass, Bromus tectorum), field poppy (Papaver rhoeas), field violet (Viola arvensis), green foxtail (Setaria viridis), deadnettle (henbit deadnettle, Lamium amplexicaule), Italian ryegrass (Lolium multiflorum), kochia (Kochia scoparia), lambsquarters (Chenopodium album), oilseed rape (Brassica napus), pigweed (Amaranthus retroflexus), chamomile (scentless chamomile, Matricaria inodora), Russian thistle (Salsola kali), speedwell (bird's-eye speedwell, Veronica persica), spring barley (Hordeum vulgare), spring wheat (Triticum aestivum), wild buckwheat (Polygonum convolvulus), wild mustard (Sinapis arvensis), wild oat (Avena fatua), wild radish (Raphanus raphanistrum), windgrass (Apera spica-venti), winter barley (Hordeum vulgare), and winter wheat (Triticum aestivum) were planted into a silt loam soil and treated preemergence with test chemicals formulated in a non-phytotoxic solvent mixture which included a surfactant.
(§3) At the same time, these species were planted in pots containing Redi-Earth® planting medium (Scotts Company, 14111 Scottslawn Road, Marysville, Ohio 43041) comprising spaghnum peat moss, vermiculite, wetting agent and starter nutrients and treated with postemergence applications of the test chemicals formulated in the same manner. Plants ranged in height from 2 to 18 cm (1- to 4-leaf stage). Treated plants and controls were maintained in a controlled growth environment for 7 to 21 days after which time all species were compared to controls and visually evaluated. Plant response ratings, summarized in Table D, are based on a scale of 0 to 100 where 0 is no effect and 100 is complete control. A dash (-) response means no test result.

wild mustard = test: Test D preemergence; format: in vivo, Sinapis arvensis
Text: as §2, §3

oilseed rape = test: Test D postemergence; format: in vivo, Brassica napus
Summary of the method: as §1

pigweed = test: Test D preemergence; format: in vivo, Amaranthus retroflexus
Summary of the method: as §1

wild radish = test: Test D preemergence; format: in vivo, Raphanus raphanistrum
Text: as §2, §3

winter barley = test: Test D postemergence; format: in vivo, Hordeum vulgare; conditions: Postemergence, scale 0 to 100 (0 no effect, 100 complete control)
Text: as §2, §3

spring barley = test: Test D postemergence; format: in vivo, Hordeum vulgare; conditions: Postemergence, scale 0 to 100 (0 no effect, 100 complete control)
Text: as §2, §3

chamomile = test: Test D preemergence; format: in vivo, Matricaria inodora
Text: as §2, §3

[1] = 62 g ai/ha, scale 0 to 100 (0 no effect, 100 complete control)
[2] = 125 g ai/ha, scale 0 to 100 (0 no effect, 100 complete control)
[3] = 250 g ai/ha, scale 0 to 100 (0 no effect, 100 complete control)
[4] = 31 g ai/ha, scale 0 (no effect) to 100 (complete control)

## FC(F)(F)c1cnn(-c2ccccc2Oc2ncc(Br)cn2)c1 [Compound 18, 5-bromo-2-[2-[4-(trifluoromethyl)-1H-pyrazol-1-yl]phenoxy]pyrimidine]
bromegrass, downy; Bromus tectorum, post-emergence, 16 g ai/ha, read-out: Plant response rating, Bromegrass, Downy
  pest or weed control at 16 g/ha: 15%
bromegrass, downy; Bromus tectorum, post-emergence, 31 g ai/ha, read-out: Plant response rating, Bromegrass, Downy
  pest or weed control at 31 g/ha: 15%
bromegrass, downy; Bromus tectorum, post-emergence, 62 g ai/ha, read-out: Plant response rating, Bromegrass, Downy
  pest or weed control at 62 g/ha: 15%
bromegrass, downy; Bromus tectorum, post-emergence, 125 g ai/ha, read-out: Plant response rating, Bromegrass, Downy
  pest or weed control at 125 g/ha: 20%
bromegrass, downy; Bromus tectorum, post-emergence, 250 g ai/ha, read-out: Plant response rating, Bromegrass, Downy
  pest or weed control at 250 g/ha: 15%
Field poppy; Papaver rhoeas, post-emergence, 16 g ai/ha, scale 0-100, read-out: Plant response rating, Field Poppy
  pest or weed control at 16 g/ha: 80%
Field poppy; Papaver rhoeas, post-emergence, 31 g ai/ha, scale 0 to 100 (0 no effect, 100 complete control), read-out: Plant response rating, Field Poppy
  pest or weed control at 31 g/ha: 75%
Field poppy; Papaver rhoeas, post-emergence, 62 g ai/ha, scale 0 to 100 (0 no effect, 100 complete control), read-out: Plant response rating, Field Poppy
  pest or weed control at 62 g/ha: 75%
Field poppy; Papaver rhoeas, post-emergence, 125 g ai/ha, scale 0 to 100 (0 no effect, 100 complete control), read-out: Plant response rating, Field Poppy
  pest or weed control at 125 g/ha: 100%
Field poppy; Papaver rhoeas, post-emergence, 250 g ai/ha, scale 0 to 100 (0 no effect, 100 complete control), read-out: Plant response rating, Field Poppy
  pest or weed control at 250 g/ha: 100%
Wild mustard; Brassica, pre-emergence, 16 g ai/ha, scale 0 (no effect) to 100 (complete control), read-out: Plant response rating, Mustard, Wild
  pest or weed control at 16 g/ha: 80%
Wild mustard; Brassica, pre-emergence, 31 g ai/ha, scale 0-100, read-out: Plant response rating, Mustard, Wild
  pest or weed control at 31 g/ha: 85%
Wild mustard; Brassica, pre-emergence, 62 g ai/ha, scale 0-100, read-out: Plant response rating, Mustard, Wild
  pest or weed control at 62 g/ha: 100%
Wild mustard; Brassica, pre-emergence, 125 g ai/ha, scale 0-100, read-out: Plant response rating, Mustard, Wild
  pest or weed control at 125 g/ha: 90%
Wild mustard; Brassica, pre-emergence, 250 g ai/ha, scale 0-100, read-out: Plant response rating, Mustard, Wild
  pest or weed control at 250 g/ha: 100%
Oilseed rape; Brassica napus, post-emergence, 16 g ai/ha, scale 0-100, read-out: Plant response rating, Oilseed Rape
  plant injury at 16 g/ha: 35%
Oilseed rape; Brassica napus, post-emergence, 31 g ai/ha, scale 0 to 100 (0 no effect, 100 complete control), read-out: Plant response rating, Oilseed Rape
  plant injury at 31 g/ha: 70%
Oilseed rape; Brassica napus, post-emergence, 62 g ai/ha, scale 0 to 100 (0 no effect, 100 complete control), read-out: Plant response rating, Oilseed Rape
  plant injury at 62 g/ha: 100%
Oilseed rape; Brassica napus, post-emergence, 125 g ai/ha, scale 0 to 100 (0 no effect, 100 complete control), read-out: Plant response rating, Oilseed Rape
  plant injury at 125 g/ha: 100%
Oilseed rape; Brassica napus, post-emergence, 250 g ai/ha, scale 0 to 100 (0 no effect, 100 complete control), read-out: Plant response rating, Oilseed Rape
  plant injury at 250 g/ha: 100%
pigweed; Amaranthus retroflexus, pre-emergence, 16 g ai/ha, scale 0 (no effect) to 100 (complete control), read-out: Plant response rating, Pigweed
  pest or weed control at 16 g/ha: 30%
pigweed; Amaranthus retroflexus, pre-emergence, 31 g ai/ha, scale 0 (no effect) to 100 (complete control), read-out: Plant response rating, Pigweed
  pest or weed control at 31 g/ha: 100%
pigweed; Amaranthus retroflexus, pre-emergence, 62 g ai/ha, scale 0-100, read-out: Plant response rating, Pigweed
  pest or weed control at 62 g/ha: 100%
pigweed; Amaranthus retroflexus, pre-emergence, 125 g ai/ha, scale 0-100, read-out: Plant response rating, Pigweed
  pest or weed control at 125 g/ha: 100%
pigweed; Amaranthus retroflexus, pre-emergence, 250 g ai/ha, scale 0-100, read-out: Plant response rating, Pigweed
  pest or weed control at 250 g/ha: 100%
Wild radish; Raphanus raphanistrum, pre-emergence, 16 g ai/ha, scale 0 (no effect) to 100 (complete control), read-out: Plant response rating, Radish, Wild
  pest or weed control at 16 g/ha: 100%
Wild radish; Raphanus raphanistrum, pre-emergence, 31 g ai/ha, scale 0 (no effect) to 100 (complete control), read-out: Plant response rating, Radish, Wild
  pest or weed control at 31 g/ha: 100%
Wild radish; Raphanus raphanistrum, pre-emergence, 62 g ai/ha, scale 0-100, read-out: Plant response rating, Radish, Wild
  pest or weed control at 62 g/ha: 100%
Wild radish; Raphanus raphanistrum, pre-emergence, 125 g ai/ha, scale 0-100, read-out: Plant response rating, Radish, Wild
  pest or weed control at 125 g/ha: 100%
Wild radish; Raphanus raphanistrum, pre-emergence, 250 g ai/ha, scale 0-100, read-out: Plant response rating, Radish, Wild
  pest or weed control at 250 g/ha: 100%
Winter barley; Hordeum vulgare, post-emergence, 16 g ai/ha, read-out: Plant response rating, Barley, Winter
  plant injury at 16 g/ha: 10%
Winter barley; Hordeum vulgare, post-emergence, 31 g ai/ha, read-out: Plant response rating, Barley, Winter
  plant injury at 31 g/ha: 10%
Winter barley; Hordeum vulgare, post-emergence, 62 g ai/ha, read-out: Plant response rating, Barley, Winter
  plant injury at 62 g/ha: 10%
Winter barley; Hordeum vulgare, post-emergence, 125 g ai/ha, read-out: Plant response rating, Barley, Winter
  plant injury at 125 g/ha: 15%
Winter barley; Hordeum vulgare, post-emergence, 250 g ai/ha, read-out: Plant response rating, Barley, Winter
  plant injury at 250 g/ha: 20%
Spring barley; Hordeum vulgare, post-emergence, 16 g ai/ha, read-out: Plant response rating, Barley, Spring
  plant injury at 16 g/ha: 5%
Spring barley; Hordeum vulgare, post-emergence, 31 g ai/ha, read-out: Plant response rating, Barley, Spring
  plant injury at 31 g/ha: 5%
Spring barley; Hordeum vulgare, post-emergence, 62 g ai/ha, read-out: Plant response rating, Barley, Spring
  plant injury at 62 g/ha: 10%
Spring barley; Hordeum vulgare, post-emergence, 125 g ai/ha, read-out: Plant response rating, Barley, Spring
  plant injury at 125 g/ha: 15%
Spring barley; Hordeum vulgare, post-emergence, 250 g ai/ha, read-out: Plant response rating, Barley, Spring
  plant injury at 250 g/ha: 25%
chamomile; Tripleurospermum inodorum, pre-emergence, 16 g ai/ha, scale 0 (no effect) to 100 (complete control), read-out: Plant response rating, Chamomile
  pest or weed control at 16 g/ha: 5%
chamomile; Tripleurospermum inodorum, pre-emergence, 31 g ai/ha, scale 0-100, read-out: Plant response rating, Chamomile
  pest or weed control at 31 g/ha: 5%
chamomile; Tripleurospermum inodorum, pre-emergence, 125 g ai/ha, scale 0-100, read-out: Plant response rating, Chamomile
  pest or weed control at 125 g/ha: 50%
chamomile; Tripleurospermum inodorum, pre-emergence, 250 g ai/ha, scale 0-100, read-out: Plant response rating, Chamomile
  pest or weed control at 250 g/ha: 55%

## N#Cc1cccc(Oc2ncc(Cl)cn2)c1-n1cc(-n2ccc(C(F)(F)F)n2)cn1 [Compound 284]
bromegrass, downy; 62 g ai/ha
  Plant response rating, Bromegrass, Downy: 40
bromegrass, downy; 31 g ai/ha
  Plant response rating, Bromegrass, Downy: 30
bromegrass, downy; 125 g ai/ha
  Plant response rating, Bromegrass, Downy: 45
bromegrass, downy; 250 g ai/ha
  Plant response rating, Bromegrass, Downy: 45
Field poppy; 31 g ai/ha, scale 0-100
  Plant response rating, Field Poppy: 65
Field poppy; [1]
  Plant response rating, Field Poppy: 70
Field poppy; [2]
  Plant response rating, Field Poppy: 100
Field poppy; [3]
  Plant response rating, Field Poppy: 100
Wild mustard; [4]
  Plant response rating, Mustard, Wild: 15
Wild mustard; 62 g ai/ha, scale 0-100
  Plant response rating, Mustard, Wild: 15
Wild mustard; 125 g ai/ha, scale 0-100
  Plant response rating, Mustard, Wild: 90
Wild mustard; 250 g ai/ha, scale 0-100
  Plant response rating, Mustard, Wild: 100
Oilseed rape; 31 g ai/ha, scale 0-100
  Plant response rating, Oilseed Rape: 65
Oilseed rape; [1]
  Plant response rating, Oilseed Rape: 70
Oilseed rape; [2]
  Plant response rating, Oilseed Rape: 100
Oilseed rape; [3]
  Plant response rating, Oilseed Rape: 100
pigweed; [4]
  Plant response rating, Pigweed: 75
pigweed; 125 g ai/ha, scale 0-100
  Plant response rating, Pigweed: 100
pigweed; 250 g ai/ha, scale 0-100
  Plant response rating, Pigweed: 100
Wild radish; [4]
  Plant response rating, Radish, Wild: 0
Wild radish; 125 g ai/ha, scale 0-100
  Plant response rating, Radish, Wild: 0
Wild radish; 250 g ai/ha, scale 0-100
  Plant response rating, Radish, Wild: 35
Winter barley; 62 g ai/ha
  Plant response rating, Barley, Winter: 15
Winter barley; 31 g ai/ha
  Plant response rating, Barley, Winter: 15
Winter barley; 125 g ai/ha
  Plant response rating, Barley, Winter: 20
Winter barley; 250 g ai/ha
  Plant response rating, Barley, Winter: 25
Spring barley; 62 g ai/ha
  Plant response rating, Barley, Spring: 15
Spring barley; 31 g ai/ha
  Plant response rating, Barley, Spring: 5
Spring barley; 125 g ai/ha
  Plant response rating, Barley, Spring: 20
Spring barley; 250 g ai/ha
  Plant response rating, Barley, Spring: 25
chamomile; [4]
  Plant response rating, Chamomile: 100
chamomile; 62 g ai/ha, scale 0-100
  Plant response rating, Chamomile: 100
chamomile; 125 g ai/ha, scale 0-100
  Plant response rating, Chamomile: 100
chamomile; 250 g ai/ha, scale 0-100
  Plant response rating, Chamomile: 100
